ChEMBL document CHEMBL1201862, “PubChem BioAssay data set” (2004)
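Exposure lasted 48 hours, with cells grown in 96-well plates and compounds tested at five concentrations. GI50 marks 50% less growth.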 Calls of active or inactive are those of the source. No stated cut-off is given here; in the data, active = GI50 up to about 1.1 µM and inactive = higher.

What was measured:
Experiment in all cases: NCI tumour cell line growth inhibition, 48 h
[1] = test system: EKVX
[2] = test system: Malme-3M
[3] = test system: COLO 205
[4] = test system: HOP-62
[5] = test system: SNB-75
[6] = test system: UACC-257
[7] = test system: LOX IMVI
[8] = test system: SK-MEL-2
[9] = test system: UO-31
[10] = test system: HCT-15
[11] = test system: DU-145
[12] = test system: MDA-N
[13] = test system: T47D
[14] = test system: SK-OV-3
[15] = test system: NCI/ADR-RES
[16] = test system: OVCAR-3
[17] = test system: HL-60
[18] = test system: HOP-92
[19] = test system: RXF 393
[20] = test system: SF-268
[21] = test system: MDA-MB-435
[22] = test system: SR
[23] = test system: SW-620
[24] = test system: HT-29
[25] = test system: SF-539
[26] = test system: OVCAR-4
[27] = test system: SN12C
[28] = test system: K562
[29] = test system: 786-0
[30] = test system: MOLT-4
[31] = test system: M14
[32] = test system: KM12
[33] = test system: PC-3
[34] = test system: SNB-19
[35] = test system: CCRF-CEM
[36] = test system: RPMI-8226
[37] = test system: SK-MEL-5
[38] = test system: NCI-H23
[39] = test system: MCF7
[40] = test system: UACC-62
[41] = test system: SF-295
[42] = test system: A549
[43] = test system: TK-10
[44] = test system: NCI-H226
[45] = test system: OVCAR-8
[46] = test system: U-251
[47] = test system: NCI-H460
[48] = test system: SK-MEL-28
[49] = test system: HCT-116
[50] = test system: CAKI-1
[51] = test system: Hs-578T
[52] = test system: ACHN
[53] = test system: OVCAR-5
[54] = test system: MDA-MB-231
[55] = test system: IGROV-1
[56] = test system: HCC 2998
[57] = test system: A498
[58] = test system: NCI-H522

Measured: GI50

CN(C)CCNc1ccc([N+](=O)[O-])c2nc3ccccc3c(N)c12
0.444 µM: [10]
inactive: [4] 2.26 µM | [6] 2.18 µM | [8] 1.99 µM | [37] 1.41 µM | [39] > 10 µM | [40] 1.15 µM | [43] 2.53 µM | [44] > 10 µM | [48] 3.83 µM | [50] 1.84 µM | [51] 3.96 µM | [53] > 10 µM
active: [1] 0.607 µM | [2] 0.443 µM | [3] 0.182 µM | [5] 0.841 µM | [7] 0.375 µM | [9] 0.757 µM | [11] 0.804 µM | [12] 0.585 µM | [13] 0.48 µM | [14] 0.152 µM | [15] 0.569 µM | [16] 0.532 µM | [17] 0.741 µM | [18] 0.547 µM | [19] 1.05 µM | [20] 0.507 µM | [21] 0.615 µM | [22] 0.282 µM | [23] 0.297 µM | [24] 0.318 µM | [25] 0.536 µM | [26] 0.74 µM | [27] 0.783 µM | [28] 0.341 µM | [29] 0.535 µM | [30] 0.434 µM | [31] 0.574 µM | [32] 0.381 µM | [33] 0.405 µM | [34] 0.895 µM | [35] 0.241 µM | [36] 0.31 µM | [38] 0.889 µM | [41] 0.711 µM | [42] 0.439 µM | [45] 0.792 µM | [46] 0.703 µM | [47] 0.318 µM | [49] 0.261 µM | [52] 0.313 µM | [54] 0.695 µM | [55] 0.456 µM

CC(C)(C)c1cc2c(c(C(C)(C)C)c1O)CC(=O)O2
inactive: [56] 35 µM | [1] 30.8 µM | [3] 22.2 µM | [4] 30.3 µM | [6] 24.6 µM | [7] 38.5 µM | [8] 21.5 µM | [9] 26.3 µM | [11] 47.5 µM | [12] 34.9 µM | [13] 23.2 µM | [14] 48.8 µM | [15] 21.1 µM | [16] 16.6 µM | [17] 34.6 µM | [19] 22.1 µM | [20] 44.4 µM | [21] 27 µM | [57] 32.1 µM | [23] 42.4 µM | [58] 46 µM | [24] 28.3 µM | [25] 23.2 µM | [26] 27.7 µM | [27] 34.8 µM | [28] 34 µM | [29] 26.5 µM | [30] 35.1 µM | [31] 25.8 µM | [32] 20.7 µM | [33] 27.2 µM | [34] 34.7 µM | [35] 29.6 µM | [36] 23.6 µM | [37] 17.1 µM | [38] 19.8 µM | [39] 35.6 µM | [40] 23.2 µM | [41] 32.2 µM | [42] 31.2 µM | [43] 30.4 µM | [44] 30.8 µM | [45] 32.2 µM | [46] 41.9 µM | [47] 37.7 µM | [48] 40.6 µM | [49] 30.1 µM | [51] 26.4 µM | [52] 22.8 µM | [53] 71.6 µM | [54] 24.5 µM | [55] 40.1 µM
45.9 µM: [10]
active: [18] < 0.01 µM
